Test results from ChEMBL document CHEMBL4138142, “Antibacterial 3,6-Disubstituted 4-Hydroxy-5,6-dihydro-2H-pyran-2-ones from Serratia plymuthica MF371-2” (J Nat Prod, 2017).
Converted amounts (≈) assume the structure as drawn.

Experiments:
Enterococcus faecium = assay: Antibacterial activity against vancomycin-resistant Enterococcus faecium 7 by dilution susceptibility test; type: functional
Enterococcus faecalis [1] = assay: Antibacterial activity against vancomycin-resistant Enterococcus faecalis 12 by dilution susceptibility test; type: functional
Staphylococcus aureus [2] = assay: Antibacterial activity against methicillin-resistant Staphylococcus aureus LMG 15975 after 16 to 24 hrs by broth microdilution method; type: functional
Acinetobacter baumannii = assay: Antibacterial activity against Acinetobacter baumannii LMG1041 after 16 to 24 hrs by broth microdilution method; type: functional
[3] = Cytotoxicity against human HepG2 cells after 48 hrs by XTT assay; type: cell-based
Streptococcus pneumoniae [4] = assay: Antibacterial activity against quinolone-resistant Streptococcus pneumoniae TE 122-024 by dilution susceptibility test; type: functional
Staphylococcus aureus [5] = assay: Antibacterial activity against macrolide-resistant Staphylococcus aureus 853E after 16 to 24 hrs by broth microdilution method; type: functional
Streptococcus pyogenes [6] = assay: Antibacterial activity against macrolide-resistant Streptococcus pyogenes 21 Finland by dilution susceptibility test; type: functional
Bacillus cereus = assay: Antibacterial activity against Bacillus cereus CCUG 7414 by dilution susceptibility test; type: functional
Streptococcus pneumoniae [7] = assay: Antibacterial activity against macrolide-sensitive Streptococcus pneumoniae SP030 by dilution susceptibility test; type: functional
Staphylococcus aureus [8] = assay: Antibacterial activity against Staphylococcus aureus CCUG 1800 after 16 to 24 hrs by broth microdilution method; type: functional
Streptococcus pneumoniae [9] = assay: Antibacterial activity against Streptococcus pneumoniae ATCC 49619 by dilution susceptibility test; type: functional
Staphylococcus aureus [10] = assay: Antibacterial activity against mupirocin-resistant Staphylococcus aureus V86 after 16 to 24 hrs by broth microdilution method; type: functional
Streptococcus pneumoniae [11] = assay: Antibacterial activity against tetracycline-resistant Streptococcus pneumoniae TE 122-026 by dilution susceptibility test; type: functional
Staphylococcus aureus [12] = assay: Antibacterial activity against macrolide-resistant Staphylococcus aureus 56 Japan after 16 to 24 hrs by broth microdilution method; type: functional
Escherichia coli = assay: Antibacterial activity against Escherichia coli LMG15862 by dilution susceptibility test; type: functional
Staphylococcus aureus [13] = assay: Antibacterial activity against mupirocin-resistant Staphylococcus aureus V55 after 16 to 24 hrs by broth microdilution method; type: functional
[14] = system: Mycolicibacterium frederiksbergense; assay: Antibacterial activity against Mycobacterium frederiksbergense by dilution susceptibility test; type: functional
Staphylococcus aureus [15] = assay: Antibacterial activity against macrolide-resistant Staphylococcus aureus 6 Holland after 16 to 24 hrs by broth microdilution method; type: functional
[16] = Cytotoxicity against human MT4 cells after 48 hrs by XTT assay; type: cell-based
[17] = system: Staphylococcus epidermidis; assay: Antibacterial activity against methicillin-resistant Staphylococcus epidermidis TA12 by dilution susceptibility test; type: functional
Staphylococcus aureus [18] = assay: Antibacterial activity against Staphylococcus aureus ATCC 29213 after 16 to 24 hrs by broth microdilution method; type: functional
Streptococcus pyogenes [19] = assay: Antibacterial activity against macrolide-sensitive Streptococcus pyogenes 29A-TF by dilution susceptibility test; type: functional
Pseudomonas aeruginosa = assay: Antibacterial activity against Pseudomonas aeruginosa LMG6395 by dilution susceptibility test; type: functional
Enterococcus faecalis [20] = assay: Antibacterial activity against vancomycin-sensitive Enterococcus faecalis 24 by dilution susceptibility test; type: functional
[21] = system: Staphylococcus epidermidis; assay: Antibacterial activity against methicillin-susceptible Staphylococcus epidermidis RO7 by dilution susceptibility test; type: functional
Staphylococcus aureus [22] = assay: Antibacterial activity against macrolide-resistant Staphylococcus aureus PK2 after 16 to 24 hrs by broth microdilution method; type: functional
Streptococcus pneumoniae [23] = assay: Antibacterial activity against macrolide-resistant Streptococcus pneumoniae 956 by dilution susceptibility test; type: functional
Staphylococcus aureus [24] = assay: Antibacterial activity against mupirocin-resistant Staphylococcus aureus V308 after 16 to 24 hrs by broth microdilution method; type: functional
Staphylococcus aureus [25] = assay: Antibacterial activity against methicillin-resistant Staphylococcus aureus MO17 after 16 to 24 hrs by broth microdilution method; type: functional
Staphylococcus aureus [26] = assay: Antibacterial activity against methicillin-resistant Staphylococcus aureus PICI after 16 to 24 hrs by broth microdilution method; type: functional
Streptococcus pneumoniae [27] = assay: Antibacterial activity against quinolone-sensitive Streptococcus pneumoniae 19A-TN by dilution susceptibility test; type: functional
Staphylococcus aureus [28] = assay: Antibacterial activity against quinolone-resistant Staphylococcus aureus FR 131 after 16 to 24 hrs by broth microdilution method; type: functional
Staphylococcus aureus [29] = assay: Antibacterial activity against methicillin-resistant Staphylococcus aureus 4384 after 16 to 24 hrs by broth microdilution method; type: functional
Staphylococcus aureus [30] = assay: Antibacterial activity against tetracycline-resistant Staphylococcus aureus 4216 after 16 to 24 hrs by broth microdilution method; type: functional
Staphylococcus aureus [31] = assay: Antibacterial activity against mupirocin-resistant Staphylococcus aureus V321 after 16 to 24 hrs by broth microdilution method; type: functional
Klebsiella pneumoniae = assay: Antibacterial activity against Klebsiella pneumoniae LMG20218 by dilution susceptibility test; type: functional
Streptococcus pneumoniae [32] = assay: Antibacterial activity against macrolide-resistant Streptococcus pneumoniae BAA1407 by dilution susceptibility test; type: functional
Staphylococcus aureus [33] = assay: Antibacterial activity against Staphylococcus aureus LMG 10147 after 16 to 24 hrs by broth microdilution method; type: functional
Streptococcus pyogenes [34] = assay: Antibacterial activity against macrolide-resistant Streptococcus pyogenes 2 Finland by dilution susceptibility test; type: functional
Streptococcus pneumoniae [35] = assay: Antibacterial activity against macrolide-resistant Streptococcus pneumoniae 158bg by dilution susceptibility test; type: functional
[36] = Cytotoxicity against human HuH7 cells after 48 hrs by XTT assay; type: cell-based, Huh-7

## NC[C@H]1O[C@H](O[C@H]2[C@H](O)[C@@H](O[C@H]3O[C@H](CO)[C@@H](O)[C@H](N)[C@H]3O)[C@H](N)C[C@@H]2N)[C@H](O)[C@@H](O)[C@@H]1O [KANAMYCIN]
Enterococcus faecium
  MIC: > 256 µg/mL
Enterococcus faecalis [1]
  MIC: > 256 µg/mL

## CCCCCCCCCC[C@@H]1CC(O)=C(C(=O)CCC)C(=O)O1
Staphylococcus aureus [2]
  MIC: 0.6 to 0.8 µg/mL (≈ 1.85 to 2.47 µM)
Acinetobacter baumannii
  MIC: 8 to 16 µg/mL (≈ 24.7 to 49.3 µM)
[3]
  CC50 at 48 h: 25 µg/mL (≈ 77.1 µM)

## CCCCCCCCC[C@@H]1CC(O)=C(C(=O)CCCCC)C(=O)O1
Staphylococcus aureus [2]
  MIC: 0.6 to 0.8 µg/mL (≈ 1.77 to 2.36 µM)
Acinetobacter baumannii
  MIC: 4 to 8 µg/mL (≈ 11.8 to 23.6 µM)
[3]
  CC50 at 48 h: 15 µg/mL (≈ 44.3 µM)

## CCCCCCC[C@@H]1CC(O)=C(C(=O)CCC)C(=O)O1
Staphylococcus aureus [2]
  MIC: 1 to 2 µg/mL (≈ 3.54 to 7.08 µM)
Acinetobacter baumannii
  MIC: > 64 µg/mL

## CCCCCCCCC[C@@H]1CC(O)=C(C(=O)CC)C(=O)O1
Staphylococcus aureus [2]
  MIC: 0.7 µg/mL (≈ 2.36 µM)
Acinetobacter baumannii
  MIC: 32 to 48 µg/mL (≈ 108 to 162 µM)
[3]
  CC50 at 48 h: 50 µg/mL (≈ 169 µM)

## CCCCCCCCC[C@@H]1CC(O)=C(C(=O)CCCC)C(=O)O1
Staphylococcus aureus [2]
  MIC: < 0.6 µg/mL
Acinetobacter baumannii
  MIC: 8 to 16 µg/mL (≈ 24.7 to 49.3 µM)
[3]
  CC50 at 48 h: 36 µg/mL (≈ 111 µM)

## CCCCCCCCC[C@@H]1CC(O)=C(C(=O)CCC)C(=O)O1
Streptococcus pneumoniae [4]
  MIC: 8 µg/mL (≈ 25.8 µM)
Staphylococcus aureus [5]
  MIC: 2 µg/mL (≈ 6.44 µM)
Streptococcus pyogenes [6]
  MIC: 8 µg/mL (≈ 25.8 µM)
Bacillus cereus
  MIC: ≤ 1 µg/mL
Staphylococcus aureus [2]
  MIC: 0.8 µg/mL (≈ 2.58 µM)
Acinetobacter baumannii
  MIC: 12 to 24 µg/mL (≈ 38.7 to 77.3 µM)
Streptococcus pneumoniae [7]
  MIC: 8 µg/mL (≈ 25.8 µM)
[3]
  CC50 at 48 h: 33 µg/mL (≈ 106 µM)
Staphylococcus aureus [8]
  MIC: 0.25 µg/mL (≈ 0.805 µM)
Streptococcus pneumoniae [9]
  MIC: 4 µg/mL (≈ 12.9 µM)
Staphylococcus aureus [10]
  MIC: 0.1 to 0.25 µg/mL (≈ 0.322 to 0.805 µM)
Streptococcus pneumoniae [11]
  MIC: 4 µg/mL (≈ 12.9 µM)
Staphylococcus aureus [12]
  MIC: 4 µg/mL (≈ 12.9 µM)
Escherichia coli
  MIC: > 64 µg/mL
Staphylococcus aureus [13]
  MIC: ≤ 0.1 µg/mL
Enterococcus faecium
  MIC: 2 µg/mL (≈ 6.44 µM)
[14]
  MIC: ≤ 0.5 µg/mL
Staphylococcus aureus [15]
  MIC: 1 µg/mL (≈ 3.22 µM)
[16]
  CC50 at 48 h: 4.7 µg/mL (≈ 15.1 µM)
[17]
  MIC: 2 µg/mL (≈ 6.44 µM)
Staphylococcus aureus [18]
  MIC: 4 µg/mL (≈ 12.9 µM)
Streptococcus pyogenes [19]
  MIC: 8 µg/mL (≈ 25.8 µM)
Enterococcus faecalis [1]
  MIC: 2 µg/mL (≈ 6.44 µM)
Pseudomonas aeruginosa
  MIC: > 64 µg/mL
Enterococcus faecalis [20]
  MIC: 2 µg/mL (≈ 6.44 µM)
[21]
  MIC: 1 µg/mL (≈ 3.22 µM)
Staphylococcus aureus [22]
  MIC: 2 µg/mL (≈ 6.44 µM)
Streptococcus pneumoniae [23]
  MIC: 4 µg/mL (≈ 12.9 µM)
Staphylococcus aureus [24]
  MIC: 0.1 to 0.25 µg/mL (≈ 0.322 to 0.805 µM)
Staphylococcus aureus [25]
  MIC: 2 µg/mL (≈ 6.44 µM)
Staphylococcus aureus [26]
  MIC: 4 µg/mL (≈ 12.9 µM)
Streptococcus pneumoniae [27]
  MIC: 8 µg/mL (≈ 25.8 µM)
Staphylococcus aureus [28]
  MIC: 2 µg/mL (≈ 6.44 µM)
Staphylococcus aureus [29]
  MIC: 2 µg/mL (≈ 6.44 µM)
Staphylococcus aureus [30]
  MIC: 2 µg/mL (≈ 6.44 µM)
Staphylococcus aureus [31]
  MIC: 0.1 to 0.25 µg/mL (≈ 0.322 to 0.805 µM)
Klebsiella pneumoniae
  MIC: > 64 µg/mL
Streptococcus pneumoniae [32]
  MIC: 8 µg/mL (≈ 25.8 µM)
Staphylococcus aureus [33]
  MIC: 0.4 µg/mL (≈ 1.29 µM)
Streptococcus pyogenes [34]
  MIC: 8 µg/mL (≈ 25.8 µM)
Streptococcus pneumoniae [35]
  MIC: 4 µg/mL (≈ 12.9 µM)
[36]
  CC50 at 48 h: 40 µg/mL (≈ 129 µM)

## CCCCCCCCC[C@@H]1CC(O)=C(C(C)=O)C(=O)O1
Staphylococcus aureus [2]
  MIC: 1.5 to 2.5 µg/mL (≈ 5.31 to 8.85 µM)
Acinetobacter baumannii
  MIC: > 64 µg/mL
[3]
  CC50 at 48 h: 71 µg/mL (≈ 251 µM)

## CCCCCCCC[C@@H]1CC(O)=C(C(=O)CCC)C(=O)O1
Staphylococcus aureus [2]
  MIC: 0.8 to 1.5 µg/mL (≈ 2.7 to 5.06 µM)
Acinetobacter baumannii
  MIC: 24 to 32 µg/mL (≈ 81 to 108 µM)
[3]
  CC50 at 48 h: 30 µg/mL (≈ 101 µM)

## CCCC(=O)C1=C(O)C[C@@H](CC)OC1=O
Staphylococcus aureus [2]
  MIC: > 50 µg/mL
Acinetobacter baumannii
  MIC: > 64 µg/mL
[3]
  CC50 at 48 h: > 100 µg/mL

## CN[C@H](CC(C)C)C(=O)N[C@H]1C(=O)N[C@@H](CC(N)=O)C(=O)N[C@H]2C(=O)N[C@H]3C(=O)N[C@H](C(=O)N[C@H](C(=O)O)c4cc(O)cc(O)c4-c4cc3ccc4O)[C@H](O)c3ccc(c(Cl)c3)Oc3cc2cc(c3O[C@@H]2O[C@H](CO)[C@@H](O)[C@H](O)[C@H]2O[C@H]2C[C@](C)(N)[C@H](O)[C@H](C)O2)Oc2ccc(cc2Cl)[C@H]1O [VANCOMYCIN]
Enterococcus faecium
  MIC: > 256 µg/mL
Enterococcus faecalis [1]
  MIC: > 256 µg/mL

## GENTAMICIN
Enterococcus faecium
  MIC: > 256 µg/mL
Enterococcus faecalis [1]
  MIC: > 256 µg/mL

## NC[C@H]1O[C@H](O[C@H]2[C@H](O)[C@@H](O[C@H]3O[C@H](CO)[C@@H](O)[C@H](N)[C@H]3O)[C@H](N)C[C@@H]2N)[C@H](N)C[C@@H]1O [TOBRAMYCIN]
Enterococcus faecium
  MIC: > 256 µg/mL
Enterococcus faecalis [1]
  MIC: > 256 µg/mL

## CCCCCCCCCCC[C@@H]1CC(O)=C(C(=O)CCC)C(=O)O1
Staphylococcus aureus [2]
  MIC: 0.1 to 0.2 µg/mL (≈ 0.295 to 0.591 µM)
Acinetobacter baumannii
  MIC: < 4 µg/mL
[3]
  CC50 at 48 h: 19 µg/mL (≈ 56.1 µM)
